Reference: US12559474B2, “Triazine derivatives having virus replication inhibitory activity and pharmaceutical composition comprising the same” (priority 2021, dated 2026)
Like-named read-outs stand apart in the source and are kept apart here.

Key:
SARS-CoV-2 3CL protease = SARS-CoV-2 3CL protease (Severe acute respiratory syndrome coronavirus 2, UniProt P0DTD1); assay: biochemical; conditions: 50% SARS-CoV-2 3CL protease inhibitory concentration, read-out: IC50
SARS-CoV-2 = assay: microbe, parasite or virus in culture; type: cell-based; conditions: Severe acute respiratory syndrome coronavirus 2, VeroE6/TMPRSS2, 72 h, 50% SARS-CoV-2 infected cell death inhibitory concentration, VeroE6/TMPRSS2 cells, 3 days culture

SMILES	IC50 (SARS-CoV-2 3CL protease; given as class symbols) [nM]	EC50 (SARS-CoV-2; class symbols) [nM]	IC50 (SARS-CoV-2 3CL protease; RapidFire MS) [nM]	EC50 (SARS-CoV-2; CellTiter-Glo 2.0) [nM]
O=c1[nH]cccc1Cn1c(=O)nc(Nc2cc3cn(CCCO)nc3cc2Cl)n(Cc2cc(F)c(F)c(F)c2)c1=O [Compound I-0450]	< 100	1000 to 10000	–	–
Cc1cncc(-n2c(=O)nc(Nc3cc4cn(C)nc4cc3Cl)n(Cc3cc(C#N)c(F)cc3Cc3cccc(Cl)c3)c2=O)c1 [II-0434]	< 100	< 1000	–	–
Cc1cncc(-n2c(=O)nc(Nc3cc4cn(CC(F)F)nc4cc3F)n(Cc3cc(F)c(F)c(F)c3)c2=O)c1 [II-0518]	< 100	1000 to 10000	–	–
COc1ccc(Nc2nc(=O)n(Cc3ccc[nH]c3=O)c(=O)n2Cc2cc(F)c(F)cc2F)cc1 [Compound I-0320]	< 100	1000 to 10000	–	–
Cc1cncc(-n2c(=O)nc(Nc3ccc4nn(C(F)F)cc4c3)n(Cc3ccc(F)c(C#N)c3)c2=O)c1 [II-0320]	< 100	< 1000	–	–
Cc1cncc(-n2c(=O)nc(Nc3cc4cn(CC(F)F)nc4cc3Cl)n(Cc3cc(F)c(F)cc3F)c2=O)c1 [II-0574]	–	–	9.2	200
O=c1[nH]cccc1Cn1c(=O)nc(Nc2ccc3c(c2)CCCO3)n(Cc2cc(F)c(F)c(F)c2)c1=O [Compound I-0019]	< 100	1000 to 10000	–	–
Cc1cncc(-n2c(=O)nc(Nc3cc4c(C#N)n(C)nc4cc3Cl)n(Cc3ccc(F)c(C#N)c3)c2=O)c1 [II-0368]	< 100	1000 to 10000	–	–
COc1ccc(Nc2nc(=O)n(CC3CCN(C)C3)c(=O)n2Cc2cc(F)c(F)c(F)c2)cc1 (stereo not drawn) [II-0259]	–	–	3400	36300
Cn1cnc(Cn2c(=O)nc(Nc3cc4sc(N)nc4cc3Cl)n(Cc3cc(Cl)c(F)cc3F)c2=O)n1 [II-0529]	< 100	< 1000	–	–
Cn1cnc(Cn2c(=O)nc(Nc3cc4sc(NCC(F)F)nc4cc3Cl)n(Cc3cc(F)c(F)c(Cl)c3)c2=O)n1 [II-0243]	< 100	1000 to 10000	–	–
COc1ccc(Nc2nc(=O)n(Cc3ccc[nH]c3=O)c(=O)n2Cc2ccc(F)c(C#N)c2)cc1 [Compound I-0253]	< 100	1000 to 10000	–	–
Cc1cncc(-n2c(=O)nc(Nc3cc4sc(NC(C)C)nc4cc3Cl)n(Cc3ccc(F)c(C#N)c3)c2=O)c1 [II-0035]	< 100	< 1000	–	–
Cc1cncc(-n2c(=O)nc(Nc3cc4cn(CC5CC5)nc4cc3Cl)n(Cc3ccc(F)c(C#N)c3)c2=O)c1 [II-0345]	< 100	< 1000	–	–
Cc1cc(F)c(Cl)cc1Cn1c(Nc2cc3cn(C)nc3cc2Cl)nc(=O)n(Cc2ncn(C)n2)c1=O [II-0044]	< 100	< 1000	–	–
CC(=O)Nc1nc2cc(Cl)c(Nc3nc(=O)n(Cc4ncn(C)n4)c(=O)n3Cc3cc(F)c(F)cc3F)cc2s1 [II-0560]	< 100	1000 to 10000	–	–
Cn1cc2cc(Nc3nc(=O)n(-c4cncc(Cl)c4)c(=O)n3Cc3cc(F)c(F)c(C#N)c3)c(F)cc2n1 [II-0367]	< 100	< 1000	–	–
Cc1cncc(-n2c(=O)nc(Nc3cc4sc(C)nc4cc3Cl)n(Cc3ccc(F)c(C#N)c3)c2=O)c1 [II-0193]	< 100	1000 to 10000	–	–
CNc1nc2cc(Cl)c(Nc3nc(=O)n(Cc4ncn(C)n4)c(=O)n3Cc3cc(F)c(F)c(F)c3)cc2o1 [II-0061]	< 100	1000 to 10000	–	–

SMILES	IC50 (SARS-CoV-2 3CL protease; given as class symbols) [nM]	EC50 (SARS-CoV-2; class symbols) [nM]	IC50 (SARS-CoV-2 3CL protease; RapidFire MS) [nM]	EC50 (SARS-CoV-2; CellTiter-Glo 2.0) [nM]
COc1cc(Cl)c(Nc2nc(=O)n(Cc3ccc[nH]c3=O)c(=O)n2Cc2cc(F)c(F)c(F)c2)c(Cl)c1 [Compound I-0437]	< 100	1000 to 10000	–	–
Cn1cnc(Cn2c(=O)nc(Nc3cc4c(-n5cccn5)n(C)nc4cc3Cl)n(Cc3cc(F)c(F)cc3F)c2=O)n1 [II-0461]	< 100	1000 to 10000	–	–
Cn1cc2cc(Nc3nc(=O)n(Cc4cc(Cl)c[nH]c4=O)c(=O)n3Cc3cc(F)c(F)c(F)c3)c(Cl)cc2n1 [Compound I-0077]	< 100	< 1000	–	–
N#Cc1cc(Cn2c(Nc3ccc4nc(NCC(F)F)sc4c3)nc(=O)n(-c3cncc(Cl)c3)c2=O)ccc1F [II-0129]	< 100	1000 to 10000	–	–
Cc1cncc(-n2c(=O)nc(Nc3cc4c(cc3Cl)nc(N(C)C)n4C)n(Cc3cc(F)c(F)c(F)c3)c2=O)c1 [II-0478]	< 100	1000 to 10000	–	–
Cn1cnc(Cn2c(=O)nc(Nc3cc4cn(C)nc4cc3Cl)n(Cc3cccc(F)c3Cl)c2=O)n1 [II-0214]	< 100	1000 to 10000	–	–
Cc1ccc(Cl)cc1Cn1c(Nc2cc3c(cc2Cl)nc2n3CCN2)nc(=O)n(-c2cncc(Cl)c2)c1=O [II-0095]	< 100	< 1000	–	–
Cn1cnc(Cn2c(=O)nc(Nc3cc4oc(N)nc4cc3Cl)n(Cc3cc(F)c(F)cc3F)c2=O)n1 [II-0057]	< 100	1000 to 10000	–	–
N#Cc1cc(Cn2c(Nc3ccc4c(c3)CCO4)nc(=O)n(-c3cncc4ccccc34)c2=O)ccc1F [Compound I-0351]	–	–	4.3	74.7
COc1ccc(Nc2nc(=O)n(Cc3ccc[nH]c3=O)c(=O)n2Cc2ccc(F)c(C#N)c2)c(Cl)c1 [Compound I-0331]	< 100	1000 to 10000	–	–
CNc1ccnc(Cn2c(=O)nc(Nc3cc4cn(C)nc4cc3Cl)n(Cc3cc(F)c(F)cc3F)c2=O)n1 [II-0253]	< 100	1000 to 10000	–	–
Cc1cc2c(cc1Nc1nc(=O)n(-c3cncc4ccccc34)c(=O)n1Cc1ccc(F)c(C#N)c1)CCO2 [II-0160]	< 100	< 1000	–	–
Cn1cc2cc(Nc3nc(=O)n(-c4cncc5ccccc45)c(=O)n3Cc3cc(F)c(F)c(F)c3)ccc2n1 [Compound I-0380]	< 100	< 1000	–	–
Cc1cncc(-n2c(=O)nc(Nc3cc4cn(C)nc4cc3Cl)n(Cc3cc(F)c(F)c(C#N)c3)c2=O)c1 [II-0130]	–	–	1.9	95
Cc1nc2cc(Cl)c(Nc3nc(=O)n(Cc4ncn(C)n4)c(=O)n3Cc3cc(F)c(F)cc3F)cc2s1 [II-0287]	< 100	1000 to 10000	–	–
CCc1cncc(-n2c(=O)nc(Nc3ccc4nn(C)cc4c3)n(Cc3ccc(F)c(C#N)c3)c2=O)c1 [II-0390]	< 100	1000 to 10000	–	–
Cc1cncc(-n2c(=O)nc(Nc3cc4cn(CC(F)F)nc4cc3F)n(Cc3cc(F)c(F)c(C#N)c3)c2=O)c1 [II-0506]	< 100	< 1000	–	–
Cc1cncc(-n2c(=O)nc(Nc3cc4cn(C)nc4cc3F)n(Cc3cc(F)c(F)c(F)c3)c2=O)c1 [Compound I-0112]	< 100	< 1000	–	–
Cc1nc(Cn2cc3cc(Nc4nc(=O)n(Cc5ccc[nH]c5=O)c(=O)n4Cc4cc(F)c(F)c(F)c4)c(Cl)cc3n2)no1 [II-0344]	< 100	1000 to 10000	–	–

SMILES	IC50 (SARS-CoV-2 3CL protease; given as class symbols) [nM]	EC50 (SARS-CoV-2; class symbols) [nM]	IC50 (SARS-CoV-2 3CL protease; RapidFire MS) [nM]	EC50 (SARS-CoV-2; CellTiter-Glo 2.0) [nM]
O=c1nc(Nc2cc3cn(CCO)nc3cc2Cl)n(Cc2cc(F)c(F)cc2F)c(=O)n1Cc1ccccn1 [II-0249]	< 100	1000 to 10000	–	–
Cn1cnc(Cn2c(=O)nc(Nc3cc4cn(CC5CC5)nc4cc3Cl)n(Cc3cc(Cl)c(F)cn3)c2=O)n1 [II-0269]	< 100	1000 to 10000	–	–
Cc1cncc(-n2c(=O)nc(Nc3cc4cn(CCN5CCOCC5)nc4cc3Cl)n(Cc3cc(F)c(F)c(F)c3)c2=O)c1 [II-0351]	< 100	< 1000	–	–
Cn1cnc(Cn2c(=O)nc(Nc3cc4cn(CC(F)F)nc4cc3Cl)n(Cc3cc(F)c(F)c(Cl)c3)c2=O)n1 [II-0572]	–	–	5.6	925
Cc1nc2cc(Cl)c(Nc3nc(=O)n(Cc4ccc[nH]c4=O)c(=O)n3Cc3ccc(F)c(Cl)c3)cc2n1C [Compound I-0007]	< 100	1000 to 10000	–	–
O=c1[nH]cccc1Cn1c(=O)nc(NC2CCCCC2)n(Cc2cc(F)c(F)c(F)c2)c1=O [II-0228]	–	–	240	5000
O=c1[nH]cccc1Cn1c(=O)nc(Nc2cc3cn(CC4(O)CCC4)nc3cc2Cl)n(Cc2cc(F)c(F)c(F)c2)c1=O [Compound I-0423]	< 100	1000 to 10000	–	–
COc1ccc(Nc2nc(=O)n(-c3cnc4sccn34)c(=O)n2Cc2cc(F)c(F)c(F)c2)cc1 [II-0393]	–	–	3100	6080
CSc1nc(=O)n(-c2cncc3ccccc23)c(=O)n1Cc1cc(F)c(F)c(F)c1 [II-0232]	–	< 1000	3700	–
Cc1cncc(-n2c(=O)nc(Nc3cc4cn(C)nc4cc3Cl)n(Cc3ccc(F)cc3Br)c2=O)c1 [II-0220]	< 100	1000 to 10000	–	–
CC(=O)Nc1nc2cc(Cl)c(Nc3nc(=O)n(-c4cncc(C)c4)c(=O)n3Cc3cc(F)c(F)cc3F)cc2s1 [II-0563]	< 100	1000 to 10000	–	–
Cc1cncc(-n2c(=O)nc(Nc3ccc4nn(CC(F)F)cc4c3)n(Cc3cc(F)c(F)c(C#N)c3)c2=O)c1 [II-0055]	–	–	4.5	180
CNc1nc2cc(F)c(Nc3nc(=O)n(-c4cncc(C)c4)c(=O)n3Cc3cc(C#N)c(F)cc3C)cc2s1 [II-0234]	< 100	< 1000	–	–
Cn1cnc(Cn2c(=O)nc(Nc3cc4c(C(F)F)n(C)nc4cc3Cl)n(Cc3cc(F)c(F)cc3F)c2=O)n1 [II-0514]	< 100	1000 to 10000	–	–
Cn1cc2cc(Nc3nc(=O)n(-c4cncc(C#N)c4)c(=O)n3Cc3cc(F)c(F)c(Cl)c3)c(Cl)cc2n1 [II-0489]	< 100	1000 to 10000	–	–
Cc1cncc(-n2c(=O)nc(Nc3cc4cn(C)nc4cc3Cl)n(Cc3cc(F)cc(Cl)c3)c2=O)c1 [II-0177]	< 100	< 1000	–	–
Cc1cncc(-n2c(=O)nc(Nc3cc4cn(C)nc4cc3Cl)n(Cc3cc(C#N)ccc3CF)c2=O)c1 [II-0334]	–	–	2.8	620
Cn1cc2cc(Nc3nc(=O)n(-c4cncc(Cl)c4)c(=O)n3Cc3cc(F)c(F)cc3F)c(F)cc2n1 [II-0475]	< 100	1000 to 10000	–	–
CCn1cc2cc(Nc3nc(=O)n(-c4cncc(Cl)c4)c(=O)n3Cc3cc(C#N)ccc3C)ccc2n1 [II-0034]	–	–	7.3	234
